Laboratory results taken from patent publication US8940325B2, “Use of synthetic polysulphated oligosaccharides as cleaning agents for a wound” (Laboratories Urgo, priority 2010, dated 2015).

Biological target: T1, fibrin matrix (Homo sapiens, UniProt P02671+P02675+P02679)
T1 construct: 15 mg of human plasma fibrinogen (Sigma-Aldrich Catalog); purchased Sigma-Aldrich; host or cells: human plasma
T1 sequence (P02671 20-644 isoform P02671-2 limits assumed): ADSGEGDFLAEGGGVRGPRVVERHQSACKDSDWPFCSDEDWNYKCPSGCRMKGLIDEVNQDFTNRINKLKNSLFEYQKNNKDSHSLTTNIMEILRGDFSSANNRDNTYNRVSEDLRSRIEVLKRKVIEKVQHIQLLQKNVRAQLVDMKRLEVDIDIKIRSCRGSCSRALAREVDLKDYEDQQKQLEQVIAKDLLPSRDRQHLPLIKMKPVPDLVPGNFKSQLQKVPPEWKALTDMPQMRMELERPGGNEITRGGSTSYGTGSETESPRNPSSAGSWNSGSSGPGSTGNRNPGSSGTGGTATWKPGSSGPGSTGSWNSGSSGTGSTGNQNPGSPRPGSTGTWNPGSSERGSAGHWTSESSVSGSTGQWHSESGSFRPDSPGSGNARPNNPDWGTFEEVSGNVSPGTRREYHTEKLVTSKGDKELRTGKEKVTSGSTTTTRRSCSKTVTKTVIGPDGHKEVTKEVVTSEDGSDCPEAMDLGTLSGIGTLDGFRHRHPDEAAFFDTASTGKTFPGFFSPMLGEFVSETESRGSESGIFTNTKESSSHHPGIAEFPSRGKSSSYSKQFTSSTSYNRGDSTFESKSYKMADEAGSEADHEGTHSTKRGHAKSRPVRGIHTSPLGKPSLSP
T1 sequence (P02675 45-491 limits assumed): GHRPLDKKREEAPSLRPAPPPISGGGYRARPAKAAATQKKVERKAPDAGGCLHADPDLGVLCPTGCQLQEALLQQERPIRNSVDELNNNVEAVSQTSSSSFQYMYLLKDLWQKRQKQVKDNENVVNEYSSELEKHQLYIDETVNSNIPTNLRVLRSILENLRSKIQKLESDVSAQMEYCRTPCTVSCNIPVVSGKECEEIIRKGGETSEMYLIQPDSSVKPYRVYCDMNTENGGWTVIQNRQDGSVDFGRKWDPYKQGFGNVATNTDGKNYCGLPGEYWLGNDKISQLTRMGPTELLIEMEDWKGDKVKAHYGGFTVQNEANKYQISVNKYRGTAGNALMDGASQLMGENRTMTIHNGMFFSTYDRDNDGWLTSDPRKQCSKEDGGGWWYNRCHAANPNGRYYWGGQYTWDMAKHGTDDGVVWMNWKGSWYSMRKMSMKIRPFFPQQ
T1 sequence (P02679 27-437 isoform P02679-2 limits assumed): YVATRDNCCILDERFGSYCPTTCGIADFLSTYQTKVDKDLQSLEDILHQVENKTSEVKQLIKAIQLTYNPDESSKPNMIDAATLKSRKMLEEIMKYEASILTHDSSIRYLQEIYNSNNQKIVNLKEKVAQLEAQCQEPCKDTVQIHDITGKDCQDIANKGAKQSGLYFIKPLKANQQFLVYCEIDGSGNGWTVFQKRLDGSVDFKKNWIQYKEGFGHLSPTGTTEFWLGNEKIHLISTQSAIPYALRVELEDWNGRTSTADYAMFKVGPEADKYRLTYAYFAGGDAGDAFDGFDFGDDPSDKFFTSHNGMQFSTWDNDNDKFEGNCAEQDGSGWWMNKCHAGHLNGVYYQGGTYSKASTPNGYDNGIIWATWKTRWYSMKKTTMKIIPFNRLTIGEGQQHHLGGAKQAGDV
Assay: Degradation of fibrin matrix prepared in vitro (visual observation and PDF determination)
Format: biochemical
Conditions: solution at 10 g/l, 48 hours
Description: The fibrin matrices were prepared according to Brown's protocol described in the work “Fibroblast migration in fibrin gel matrices” Am J. Pathol, 1993, 142: 273-283.
The following were dissolved at 37° C.: • 5 ml of an aqueous solution comprising 50 millimoles of Hepes (Sigma-Aldrich Catalog) • 15 mg of human plasma fibrinogen (Sigma-Aldrich Catalog) • 5 millimoles of CaCl2.
50 μl of thrombin, 100 NIH of human plasma (Sigma-Aldrich Catalog) were added to the solution thus prepared.
The reaction mixture was mixed, put in a 15-ml tube (or a Petri dish of 60 mm diameter) and then left to incubate at 37° C.
During the first 24 hours of incubation at 37° C., a fibrin matrix which has roughly the appearance of a gel was seen to appear.
In parallel, a control solution was prepared free from the test compound with phosphate-buffered saline (PBS).
The degradation of the fibrin matrix was monitored visually over the next 24 and 48 hours. […]
In order to quantify and verify that the observations made do indeed correspond to degradation of the fibrin matrix, the products of degradation of fibrin (PDFs) were determined 24 hours or 48 hours after adding the solutions of the test compound. […]
This solution was tested according to the protocol described above and the PDFs were measured 48 hours after adding the solution to the fibrin matrix. […]

SMILES: O=S(=O)([O-])OC[C@H]1O[C@@](COS(=O)(=O)[O-])(O[C@H]2O[C@H](COS(=O)(=O)[O-])[C@@H](OS(=O)(=O)[O-])[C@H](OS(=O)(=O)[O-])[C@H]2OS(=O)(=O)[O-])[C@@H](OS(=O)(=O)[O-])[C@@H]1OS(=O)(=O)[O-].[K+].[K+].[K+].[K+].[K+].[K+].[K+].[K+] [potassium salt of sucrose octasulfate]
- degradation of the fibrin matrix (level): partial degradation (if the value of the PDFs, expressed in μg/ml, is between 5 and 20, there is partial degradation of the fibrin matrix)
